IC50 data for 25 molecules are collected here from US20100317647A1 (priority 2009, published 2010).

SMILES strings stand for the structures.

The target in this assay is human Cat S (Homo sapiens, UniProt P25774). The assay is described as follows: Cathepsin enzyme inhibition assay (fluorogenic peptide substrate cleavage). It is filed as biochemical. Particulars: human Cat S 1 nM; substrate Z-Val-Val-Arg-AMC 20 μM; pH 6.5; fluorescence over 20 minutes. The method in brief: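 IC50 values derived from fluorescence increase (ex 360 nm, em 465 nm) monitored for 20 minutes after substrate addition. Enzyme held at 1 nM with 20 μM Z-Val-Val-Arg-AMC, in pH 6.5 potassium phosphate buffer containing DTT, EDTA and Triton X-100.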
Chain of human Cat S (P25774 115-331): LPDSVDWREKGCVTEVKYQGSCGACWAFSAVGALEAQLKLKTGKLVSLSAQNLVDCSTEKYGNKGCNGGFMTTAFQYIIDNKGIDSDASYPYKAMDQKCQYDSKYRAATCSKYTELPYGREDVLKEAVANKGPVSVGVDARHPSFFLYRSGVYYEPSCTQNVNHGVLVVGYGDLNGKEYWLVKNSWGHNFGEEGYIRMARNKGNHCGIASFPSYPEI
Take `Cn1cc(-c2ccc(S(=O)(=O)[C@H]3C[C@@H](OC4CCS(=O)(=O)CC4)[C@H](C(=O)NC4(C#N)CC4)C3)c(C(F)(F)F)c2)cn1` (racemic) [Example 184, (1R,2R,4R) and (1S,2S,4S)-2-[(tetrahydro-1,1-dioxo-2H-thiopyran-4-yl)oxy]-4-[4-(1-methyl-1H-pyrazol-4-yl)-2-trifluoromethyl-benzenesulfonyl]-cyclopentanecarboxylic acid (1-cyano-cyclopropyl)-amide]: the half-maximal inhibitory concentration (IC50) was determined as 0.16 nM. The molecule `N#CC1(NC(=O)[C@@H]2C[C@@H](S(=O)(=O)c3ccccc3Cl)C[C@H]2Oc2ccc(Cl)cc2)CC1` (racemic) [Example 243, (1R,2R,4R) and (1S,2S,4S)-4-(2-Chloro-benzenesulfonyl)-2-(4-chloro-phenoxy)-cyclopentanecarboxylic acid (1-cyano-cyclopropyl)-amide] came in with an IC50 of 1.45 nM.

Regarding `Cc1cc(-c2ccc(S(=O)(=O)[C@H]3C[C@@H](OC4CCS(=O)(=O)CC4)[C@H](C(=O)NC4(C#N)CC4)C3)c(C(F)(F)F)c2)ccn1` (racemic) [Example 183, (1R,2R,4R) and (1S,2S,4S)-2-[(tetrahydro-1,1-dioxo-2H-thiopyran-4-yl)oxy]-4-[4-(2-methyl-pyridin-4-yl)-2-trifluoromethyl-benzenesulfonyl]-cyclopentanecarboxylic acid (1-cyano-cyclopropyl)-amide], the IC50 turned out to be 0.2 nM. Next, `CCO[C@@H]1C[C@H](S(=O)(=O)c2ccc(Br)cc2C(F)(F)F)C[C@H]1C(=O)NC1(C#N)CC1` (racemic) [Example 113, (1R,2R,4R) and (1S,2S,4S)-4-(4-Bromo-2-trifluoromethyl-benzenesulfonyl)-2-ethoxy-cyclopentanecarboxylic acid (1-cyano-cyclopropyl)-amide]: 1.1 nM; `Cc1cc(-c2ccc(S(=O)(=O)[C@H]3C[C@@H](OC4CCOCC4)[C@H](C(=O)NC4(C#N)CC4)C3)c(C(F)(F)F)c2)ccn1` (racemic) [Example 174, (1R,2R,4R) and (1S,2S,4S)-4-[4-(2-Methyl-pyridin-4-yl)-2-trifluoromethyl-benzenesulfonyl]-2-(tetrahydro-pyran-4-yloxy)-cyclopentanecarboxylic acid (1-cyano-cyclopropyl)-amide]: 0.17 nM. Next, `N#CC1(NC(=O)[C@@H]2C[C@@H](S(=O)(=O)c3ccc(F)cc3C(F)(F)F)C[C@H]2C(=O)N2CC(F)(F)C2)CC1` [Example 118, (1R,2R,4R)-2-(3,3-Difluoro-azetidine-1-carbonyl)-4-(4-fluoro-2-trifluoromethyl-benzenesulfonyl)-cyclopentanecarboxylic acid (1-cyano-cyclopropyl)-amide]: 3 nM; `Cn1nccc1-c1cccc(S(=O)(=O)[C@@H]2C[C@@H](C(=O)NC3(C#N)CC3)[C@H](C(=O)N3CCC(F)(F)C3)C2)c1` [Example 201, (1R,2R,4R)-2-(3,3-Difluoro-pyrrolidine-1-carbonyl)-4-[3-(2-methyl-2H-pyrazol-3-yl)-benzenesulfonyl]-cyclopentanecarboxylic acid (1-cyano-cyclopropyl)-amide]: 0.34 nM.

In turn, `N#CCNC(=O)[C@@H]1C[C@H](S(=O)(=O)c2ccccc2Cl)C[C@H]1COc1ccc(Cl)cc1` (single isomer, unassigned) [Example 69] gave an IC50 of 810 nM. Next, `CO[C@@H]1C[C@H](S(=O)(=O)c2ccc(-c3ccnc(C(F)(F)F)c3)cc2C(F)(F)F)C[C@H]1C(=O)NC1(C#N)CC1` (racemic) [Example 109, (1R,2R,4R) and (1S,2S,4S)-2-Methoxy-4-[2-trifluoromethyl-4-(2-trifluoromethyl-pyridin-4-yl)-benzenesulfonyl]-cyclopentanecarboxylic acid (1-cyano-cyclopropyl)-amide]: 0.4 nM. Next, `N#CC1(NC(=O)[C@@H]2C[C@@H](S(=O)(=O)c3ccccc3C(F)(F)F)C[C@H]2OCc2ccc(Cl)cc2)CC1` (racemic) [Example 232, (1R,2R,4R) and (1S,2S,4S)-2-(4-Chloro-benzyloxy)-4-(2-trifluoromethyl-benzenesulfonyl)-cyclopentanecarboxylic acid (1-cyano-cyclopropyl)-amide]: 1.85 nM. Next, `N#CCNC(=O)[C@@H]1C[C@H](S(=O)(=O)c2ccc(F)cc2Cl)C[C@H]1COc1ccc(F)cc1` (single isomer, unassigned) [Example 144]: 145 nM. Regarding `N#CC1(NC(=O)[C@@H]2C[C@@H](S(=O)(=O)c3ccc(Cl)cn3)C[C@H]2C(=O)N2CCC(F)(F)C2)CC1` [Example 225, (1R,2R,4R)-4-(5-Chloro-pyridine-2-sulfonyl)-2-(3,3-difluoro-pyrrolidine-1-carbonyl)-cyclopentanecarboxylic acid (1-cyano-cyclopropyl)-amide], the midpoint of inhibition, the IC50, lay at 0.38 nM. Next, `CC(C)OC[C@@H]1C[C@H](S(=O)(=O)c2ccc(F)cc2Cl)C[C@H]1C(=O)NC1(C#N)CC1` [Example 156, (1R,2R,4S)-4-(2-Chloro-4-fluoro-benzenesulfonyl)-2-isopropoxymethyl-cyclopentanecarboxylic acid (1-cyano-cyclopropyl)-amide]: 31.5 nM; `N#CC1(NC(=O)C2CC(S(=O)(=O)c3ccc(-n4cccn4)cc3C(F)(F)F)CC2C(=O)N2CC(F)(F)C2)CC1` (stereo not shown) [Example 128, 2-(3,3-Difluoro-azetidine-1-carbonyl)-4-(4-pyrazol-1-yl-2-trifluoromethyl-benzenesulfonyl)-cyclopentanecarboxylic acid (1-cyano-cyclopropyl)-amide]: 0.7 nM; `Cn1cc(-c2ccc(S(=O)(=O)[C@H]3C[C@@H](OC4CCCC4)[C@H](C(=O)NC4(C#N)CC4)C3)c(C(F)(F)F)c2)cn1` (racemic) [Example 213, (1R,2R,4R) and (1S,2S,4S)-2-Cyclopentyloxy-4-[4-(1-methyl-1H-pyrazol-4-yl)-2-trifluoromethyl-benzenesulfonyl]-cyclopentanecarboxylic acid (1-cyano-cyclopropyl)-amide]: 0.16 nM. Next, `N#CC1(NC(=O)[C@H]2CC[C@H](S(=O)(=O)c3ccc(-n4cccn4)cc3Cl)C2)CC1` (single isomer, unassigned) [Example 100]: 170 nM. Next, `CO[C@@H]1C[C@H](S(=O)(=O)c2ccc(-c3ccc(F)c(F)c3)cc2C(F)(F)F)C[C@H]1C(=O)NC1(C#N)CC1` (racemic) [Example 74, (1R,2R,4R) and (1S,2S,4S)-4-(3′,4′-Difluoro-3-trifluoromethyl-biphenyl-4-sulfonyl)-2-methoxy-cyclopentanecarboxylic acid (1-cyano-cyclopropyl)-amide]: 0.7 nM. `COc1cncc(-c2ccc(S(=O)(=O)[C@H]3C[C@@H](OC)[C@H](C(=O)NC4(C#N)CC4)C3)c(C(F)(F)F)c2)c1` (racemic) [Example 86, (1R,2R,4R) and (1S,2S,4S)-2-Methoxy-4-[4-(5-methoxy-pyridin-3-yl)-2-trifluoromethyl-benzenesulfonyl]-cyclopentanecarboxylic acid (1-cyano-cyclopropyl)-amide] gave an IC50 of 0.5 nM.

`CCN1CCC(C#N)(NC(=O)[C@@H]2C[C@@H](S(=O)(=O)c3ccc(Cl)cc3Cl)C[C@H]2OCc2ccc(Cl)cc2)CC1` (racemic) [Example 240, (1R,2R,4R) and (1S,2S,4S)-2-(4-Chloro-benzyloxy)-4-(2,4-dichloro-benzenesulfonyl)-cyclopentanecarboxylic acid (4-cyano-1-ethyl-piperidin-4-yl)-amide] registered an IC50 of 25.5 nM. Next, `COc1ccc(S(=O)(=O)[C@H]2C[C@@H](OC)[C@H](C(=O)NC3(C#N)CC3)C2)c(Cl)c1` (racemic) [Example 89, (1R,2R,4R) and (1S,2S,4S)-4-(2-Chloro-4-methoxy-benzenesulfonyl)-2-methoxy-cyclopentanecarboxylic acid (1-cyano-cyclopropyl)-amide]: 7.4 nM; `CO[C@@H]1C[C@H](S(=O)(=O)c2ccc(-c3nc(C)cs3)cc2C(F)(F)F)C[C@H]1C(=O)NC1(C#N)CC1` (racemic) [Example 61, (1R,2R,4R) and (1S,2S,4S)-2-Methoxy-4-[4-(4-methyl-thiazol-2-yl)-2-trifluoromethyl-benzenesulfonyl]-cyclopentanecarboxylic acid (1-cyano-cyclopropyl)-amide]: 0.3 nM; `CO[C@@H]1C[C@H](S(=O)(=O)c2ccc(N3CCN(C4CC4)CC3)cc2C(F)(F)F)C[C@H]1C(=O)NC1(C#N)CC1` (racemic) [Example 215, (1R,2R,4R) and (1S,2S,4S)-4-[4-(4-Cyclopropyl-piperazin-1-yl)-2-trifluoromethyl-benzenesulfonyl]-2-methoxy-cyclopentanecarboxylic acid (1-cyano-cyclopropyl)-amide]: 6.6 nM. Next, `N#CC1(NC(=O)[C@@H]2C[C@@H](S(=O)(=O)c3ccc(N4CC(F)(F)C4)cc3Cl)C[C@H]2C(=O)N2CC(F)(F)C2)CC1` [Example 136, (1R,2R,4R)-4-[2-Chloro-4-(3,3-difluoro-azetidin-1-yl)-benzenesulfonyl]-2-(3,3-difluoro-azetidine-1-carbonyl)-cyclopentanecarboxylic acid (1-cyano-cyclopropyl)-amide]: 1.3 nM; `N#CC1(NC(=O)[C@@H]2C[C@@H](S(=O)(=O)c3ccccc3Cl)C[C@H]2O)CC1` (racemic) [Example 48, (1R,2R,4R) and (1S,2S,4S)-4-(2-Chloro-benzenesulfonyl)-2-hydroxy-cyclopentanecarboxylic acid (1-cyano-cyclopropyl)-amide]: 120 nM. Next, `CO[C@@H]1C[C@H](S(=O)(=O)c2ccc(-c3ccc(S(C)(=O)=O)cc3)cc2C(F)(F)F)C[C@H]1C(=O)NC1(C#N)CC1` (racemic) [Example 75, (1R,2R,4R) and (1S,2S,4S)-4-(4′-Methanesulfonyl-3-trifluoromethyl-biphenyl-4-sulfonyl)-2-methoxy-cyclopentanecarboxylic acid (1-cyano-cyclopropyl)-amide]: 0.5 nM.
